US12644133B2, “Methods and compositions to increase somatic cell nuclear transfer (SCNT) efficiency by removing histone H3-lysine trimethylation” (The Children's Medical Center Corporation, priority 2014, dated 2026)

Experiments:
H3K9me3 = test: Immunostaining of H3K9me3 in SCNT embryos; assay type: cell-based, mouse; settings: mRNA injected at 5 hpa; cumulus donor cells
Procedure: Somatic cell nuclear transfer was carried out as described previously (Matoba et al., 2011). Briefly, recipient MII oocytes were collected from superovulated adult BDF1 females by brief treatment with 300 U/ml bovine testicular hyaluronidase (Calbiochem). Isolated MII oocytes were enucleated in Hepes-buffered KSOM medium containing 7.5 μg/ml of cytochalasin B (Calbiochem #250233). The nuclei of donor cumulus cells or Sertoli cells were injected into the enucleated oocytes using a Piezo-driven micromanipulator (Primetech #PMM-150FU). MEF cells were fused with enucleated oocytes by inactivated Sendai virus envelope (HVJ-E; Ishihara Sangyo, Japan). After 1 h incubation in KSOM, reconstructed SCNT oocytes were activated by incubation in Ca-free KSOM containing 5 μg/ml cytochalasin B for 1 h and further cultured in KSOM with cytochalasin B for 4 h. Activated SCNT embryos were washed 5 h after the onset of SrCl2 treatment (hours post activation, hpa) and cultured in KSOM in a humidified atmosphere of 5% CO2 at 37.8° C. In some experiments, SCNT embryos were injected with ˜10 pl of water (control), 1800 ng/μl wild-type or mutant (H189A) Kdm4d mRNA at 5-6 hpa by using a Piezo-driven micromanipulator (Primetech). […] Preimplantation developmental rates were statistically analyzed by Student's T-test. […]

[1] = tested on: SCNT embryos transferred to pseudopregnant ICR females; test: In vivo development of 2-cell SCNT embryos after embryo transfer (caesarian section at E19.5); set-up: species or system mouse; settings: for Body weight at birth (g ± SD) / Placenta weight at birth (g ± SD) / No. of implanted / No. of pups / implanted (% per ET) / pups (% per ET): Kdm4d mRNA 1800 ng/μl
Source text: Two-cell stage embryos generated by SCNT or in vitro fertilization were transferred to the oviducts of pseudopregnant (E0.5) ICR females. The pups were recovered by caesarian section on the day of delivery (E19.5) and nursed by lactating ICR females.

[2] = Sertoli donor cells (BDF1, male)
[3] = Sertoli donor cells (BDF1, male), E19.5
[4] = Sertoli donor cells (BDF1, male), E19.5, listed as Kdm4d
[5] = Sertoli donor cells (BDF1, male), E19.5, listed as Kdm4d WT
[6] = cumulus donor cells (BDF1, female)
[7] = cumulus donor cells (BDF1, female), E19.5

## Kdm4d WT mRNA: in vitro transcribed full length mouse Kdm4d mRNA, encoding an H3K9me3-specific histone demethylase
H3K9me3
  reduction of H3K9me3 levels in SCNT embryos (in words): greatly reduced H3K9me3 levels
[1]; [2]
  Body weight at birth (g ± SD): 1.48 ± 0.11 g
  Placenta weight at birth (g ± SD): 0.26 ± 0.10 g
[1]; [3]
  No. of implanted: 59
  No. of pups: 8
[1]; [4]
  implanted (% per ET): 64%
  pups (% per ET): 8.7%
[1]; [5]
  implanted (% per ET): 64.1%
  pups (% per ET): (8.7) %
[1]; [6]
  Body weight at birth (g ± SD): 1.60 ± 0.15 g
  Placenta weight at birth (g ± SD): 0.32 ± 0.03 g
[1]; [7]
  No. of implanted: 75
  No. of pups: 9
  implanted (% per ET): 63.0%
[1]; cumulus donor cells (BDF1, female), E19.5, listed as Kdm4d
  pups (% per ET): 7.6%
[1]; cumulus donor cells (BDF1, female), E19.5, listed as Kdm4d WT
  pups (% per ET): (7.6) %
[1]; cumulus donor cells, E19.5
  rate of implantation relative to control SCNT embryos: 3 fold
[1]; mouse, in vivo
  growth and fertility of SCNT pups (in words): grew normally to adulthood and generated offspring by natural mating
